Data set [1] deals with PgQC (glutaminyl cyclase from P. gingivalis) (Porphyromonas gingivalis, UniProt Q7MT37). Description: Inhibition of P. gingivalis glutaminyl cyclase, fluorogenic substrate H-Gln-AMC. Format: biochemical.
Protocol: (§2) The enzymatic activity of recombinant QCs were evaluated using the fluorogenic substrate H-Gln-AMC as described previously [25]. For inhibitor testing, compounds were added with 1% (v/v) DMSO in the reaction mixture. Inhibitory constants were determined using concentrations of H-Gln-AMC varying from 1/4 KM to 2 KM and a final concentration of QC in a range between 20 and 50 nM. Progress curves were fitted to the general equation for competitive inhibition using GraFit software (Version 7, Erithacus software Ltd., Horley, UK).
Another data set addresses PiQC (Prevotella intermedia, UniProt A0A3R7XL21). As to the kind of experiment: Inhibition of Prevotella intermedia glutaminyl cyclase, fluorogenic substrate H-Gln-AMC. Format: biochemical. The note with it: recombinant QC, competitive inhibition fit.
Data set [2] in a line: Cytotoxicity, cell viability in SHSY-5Y. The conditions noted are these: human, SHSY-5Y cells; 30 µM compound. It counts as cell-based. From the text: (§1) Table 3 Inhibition of related glutaminyl cyclases from bacteria and human and cytotoxicity of selected inhibitors. | column: 8k; 8t; 8w
Data set [3] in a line: Cytotoxicity, cell viability in Hep-G2. It counts as cell-based. The conditions noted are these: human, Hep-G2 cells; 30 µM compound.
Source text: as §1

For the next data set, the target named is TfQC. As to the kind of experiment: Inhibition of Tannerella forsythia glutaminyl cyclase, fluorogenic substrate H-Gln-AMC. The note with it: read-out: Ki TfQC; recombinant QC, competitive inhibition fit.
In data set [4] the target is hQC (human glutaminyl cyclase) (Homo sapiens, UniProt Q16769). Description: Inhibition of human glutaminyl cyclase, fluorogenic substrate H-Gln-AMC. It counts as biochemical.
Protocol: (§3) The enzymatic activity of recombinant QCs were evaluated using the fluorogenic substrate H-Gln-AMC as described previously [25]. For inhibitor testing, compounds were added with 1% (v/v) DMSO in the reaction mixture.
Setting [5] is: recombinant QC, competitive inhibition fit, read-out: Ki PgQC.
The mark [6] stands for this setting: recombinant QC, competitive inhibition fit, read-out: Ki hQC.

Where two headings read alike, the source gives them in different places.

Here are results for 33 compounds from article PMC8709289, “Tetrahydroimidazo[4,5-c]pyridine-Based Inhibitors of Porphyromonas gingivalis Glutaminyl Cyclase” (Pharmaceuticals, 2021).

Sequence of PgQC (glutaminyl cyclase from P. gingivalis) (Q7MT37 entry or part of it): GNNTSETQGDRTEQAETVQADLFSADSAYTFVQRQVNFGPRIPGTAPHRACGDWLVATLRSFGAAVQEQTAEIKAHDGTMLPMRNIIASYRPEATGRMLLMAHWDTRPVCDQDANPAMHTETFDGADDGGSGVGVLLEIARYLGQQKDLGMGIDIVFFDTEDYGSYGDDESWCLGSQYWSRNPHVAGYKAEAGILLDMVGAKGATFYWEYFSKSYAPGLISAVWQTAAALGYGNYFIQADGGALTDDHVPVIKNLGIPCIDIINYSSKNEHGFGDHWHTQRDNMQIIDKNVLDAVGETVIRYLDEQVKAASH
Sequence of hQC (human glutaminyl cyclase) (Q16769 29-361): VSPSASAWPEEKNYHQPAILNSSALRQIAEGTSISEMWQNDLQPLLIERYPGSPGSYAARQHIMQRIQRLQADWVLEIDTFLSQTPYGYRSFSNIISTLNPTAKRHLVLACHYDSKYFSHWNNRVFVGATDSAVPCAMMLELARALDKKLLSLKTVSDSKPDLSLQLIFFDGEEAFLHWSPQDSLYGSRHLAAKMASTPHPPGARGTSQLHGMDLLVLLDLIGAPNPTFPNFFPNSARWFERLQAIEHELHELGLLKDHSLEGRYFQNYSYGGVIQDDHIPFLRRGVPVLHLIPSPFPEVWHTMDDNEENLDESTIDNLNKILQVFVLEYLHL
Sequence of PiQC (A0A3R7XL21 entry or part of it): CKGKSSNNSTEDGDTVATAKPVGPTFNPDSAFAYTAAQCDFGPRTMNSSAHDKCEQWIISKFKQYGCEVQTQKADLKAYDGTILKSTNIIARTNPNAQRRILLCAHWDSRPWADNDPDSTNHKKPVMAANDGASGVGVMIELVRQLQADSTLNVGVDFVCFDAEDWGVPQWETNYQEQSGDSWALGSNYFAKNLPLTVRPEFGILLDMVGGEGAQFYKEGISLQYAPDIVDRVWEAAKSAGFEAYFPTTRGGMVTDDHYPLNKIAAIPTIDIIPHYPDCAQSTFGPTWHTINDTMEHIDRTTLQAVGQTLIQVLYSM
Protocol for PiQC: as §3
Protocol for TfQC: as §2

As to `c1ccc(CNCCc2c[nH]cn2)cc1` [6a, N-Benzylhistamine], the “Inhibition of PgQC at 10 µM” value in data set [1] is listed as “no inhibition @ 10 µM”.

For `c1ccc(CN2CCc3[nH]cnc3C2)cc1` [7a, 5-Benzyl-3,4,6,7-tetrahydroimidazo[4,5-c]pyridine], the Ki in data set [1] (setting [5]) stood at 909 ± 5 nM.

For the compound `c1ccc(CCN2CCc3[nH]cnc3C2)cc1` [7b, 5-(2-Phenylethyl)-3,4,6,7-tetrahydroimidazo[4,5-c]pyridine], in data set [1] (setting [5]), the Ki came out at 6470 ± 400 nM.

Regarding `c1ccc(CN2CCc3[nH]cnc3C23COC3)cc1` [7c, 5-Benzylspiro[6,7-dihydro-3H-imidazo[4,5-c]pyridine-4,3′-oxetane]], the Ki in data set [1] (setting [5]) was found to be 1760 ± 145 nM.

Turning to `CC1c2nc[nH]c2CCN1Cc1ccccc1` (stereo not shown) [7d, 5-Benzyl-4-methyl-3,4,6,7-tetrahydroimidazo[4,5-c]pyridine], the inhibition constant Ki in data set [1] (setting [5]) was found to be 3080 ± 40 nM.

Turning to `c1ccc(CN2CCc3nc[nH]c3C2c2ccccc2)cc1` (stereo not shown) [7e, 5-Benzyl-4-phenyl-3,4,6,7-tetrahydroimidazo[4,5-c]pyridine], the “Inhibition of PgQC at 10 µM” value in data set [1] was “no inhibition @ 10 µM”.

Take `O=C(c1ccccc1)N1CCc2[nH]cnc2C1` [8a, Phenyl(3,4,6,7-tetrahydroimidazo[4,5-c]pyridin-5-yl)methanone]: the Ki in data set [1] (setting [5]) was 435 ± 15 nM.

Turning to `O=C(Cc1ccccc1)N1CCc2[nH]cnc2C1` [8b, 2-Phenyl-1-(3,4,6,7-tetrahydroimidazo[4,5-c]pyridin-5-yl)ethanone], in data set [1] (setting [5]), the Ki worked out at 1680 ± 80 nM.

In the case of `O=C(CCc1ccccc1)N1CCc2[nH]cnc2C1` [8c, 3-Phenyl-1-(3,4,6,7-tetrahydroimidazo[4,5-c]pyridin-5-yl)propan-1-one], the inhibition constant Ki in data set [1] (setting [5]) was 1750 ± 60 nM.

As for `O=C(/C=C/c1ccccc1)N1CCc2[nH]cnc2C1` [8d, (E)-3-Phenyl-1-(3,4,6,7-tetrahydroimidazo[4,5-c]pyridin-5-yl)prop-2-en-1-one], the Ki in data set [1] (setting [5]) came out at 1570 ± 25 nM.

As to `O=C(c1ccc(F)cc1)N1CCc2[nH]cnc2C1` [8e, (4-Fluorophenyl)-(3,4,6,7-tetrahydroimidazo[4,5-c]pyridin-5-yl)methanone], the Ki in data set [1] (setting [5]) was 879 ± 8 nM.

`O=C(c1cccc(F)c1)N1CCc2[nH]cnc2C1` [8f, (3-Fluorophenyl)-(3,4,6,7-tetrahydroimidazo[4,5-c]pyridin-5-yl)methanone]: the inhibition constant Ki in data set [1] (setting [5]) was 322 ± 6 nM.

As to `O=C(c1cc(F)c(F)c(F)c1)N1CCc2[nH]cnc2C1` [8g, (3,4,6,7-Tetrahydroimidazo[4,5-c]pyridin-5-yl)(3,4,5-trifluoro-phenyl)methanone], the inhibition constant Ki in data set [1] (setting [5]) came out at 904 ± 7 nM.

Consider `O=C(c1ccc(Cl)cc1)N1CCc2[nH]cnc2C1` [8h, (4-Chlorophenyl)-(3,4,6,7-tetrahydroimidazo[4,5-c]pyridin-5-yl)methanone], for which, in data set [1] (setting [5]), the Ki turned out to be 682 ± 25 nM.

As for `O=C(c1cccc(Cl)c1)N1CCc2[nH]cnc2C1` [8i, (3-Chlorophenyl)-(3,4,6,7-tetrahydroimidazo[4,5-c]pyridin-5-yl)methanone], the Ki in data set [1] (setting [5]) came out at 174 ± 14 nM.

Consider `O=C(c1ccc(Cl)c(Cl)c1)N1CCc2[nH]cnc2C1` [8j, (3,4-Dichlorophenyl)-(3,4,6,7-tetrahydroimidazo[4,5-c]pyridin-5-yl)methanone], for which the Ki in data set [1] (setting [5]) came to 257 ± 16 nM.

On to `O=C(c1cc(Cl)cc(Cl)c1)N1CCc2nc[nH]c2C1` [8k, (3,5-Dichlorophenyl)-(3,4,6,7-tetrahydroimidazo[4,5-c]pyridin-5-yl)methanone], for which the Ki worked out at 63 ± 7 nM at PiQC, 176 ± 3 nM on TfQC, 100 ± 6 nM in data set [1] (setting [5]) and 387 ± 64 nM in data set [4] (setting [6]). In addition, the figures for the viability at 30 µM in data set [2] and in data set [3] were 119% and 92%, respectively.

On to `COc1ccc(C(=O)N2CCc3[nH]cnc3C2)cc1` [8l, (4-Methoxyphenyl)-(3,4,6,7-tetrahydroimidazo[4,5-c]pyridin-5-yl)methanone], for which, in data set [1] (setting [5]), the Ki turned out to be 833 ± 49 nM.

For `COc1cccc(C(=O)N2CCc3[nH]cnc3C2)c1` [8m, (3-Methoxyphenyl)-(3,4,6,7-tetrahydroimidazo[4,5-c]pyridin-5-yl)methanone], the Ki in data set [1] (setting [5]) came out at 335 ± 6 nM.

As for `COc1ccc(C(=O)N2CCc3[nH]cnc3C2)cc1OC` [8n, (3,4-Dimethoxyphenyl)-(3,4,6,7-tetrahydroimidazo[4,5-c]pyridin-5-yl)methanone], the Ki in data set [1] (setting [5]) was 1470 ± 304 nM.

On to `COc1cc(OC)cc(C(=O)N2CCc3[nH]cnc3C2)c1` [8o, (3,5-Dimethoxyphenyl)-(3,4,6,7-tetrahydroimidazo[4,5-c]pyridin-5-yl)methanone], for which the inhibitory constant (Ki) in data set [1] (setting [5]) was found to be 928 ± 21 nM.

Turning to `O=C(c1ccc2c(c1)OCCO2)N1CCc2[nH]cnc2C1` [8p, (2,3-Dihydrobenzo[b][1,4]dioxin-6-yl)(1,4,6,7-tetrahydro-5H-imidazo-[4,5-c]pyridin-5-yl)methanone], the Ki in data set [1] (setting [5]) amounted to 1340 ± 219 nM.

With `O=C(c1ccc2c(c1)OCO2)N1CCc2[nH]cnc2C1` [8q, Benzo[d][1,3]dioxol-5-yl(3,4,6,7-tetrahydroimidazo[4,5-c]pyridin-5-yl)methanone], the Ki in data set [1] (setting [5]) was 560 ± 4 nM.

Regarding `CCCOc1cccc(C(=O)N2CCc3[nH]cnc3C2)c1` [8r, (3-Propoxyphenyl)-(3,4,6,7-tetrahydroimidazo[4,5-c]pyridin-5-yl)methanone], the Ki in data set [1] (setting [5]) worked out at 780 ± 24 nM.

With `COc1cc(C(=O)N2CCc3[nH]cnc3C2)ccc1F` [8s, (4-Fluoro-3-methoxyphenyl)-(3,4,6,7-tetrahydroimidazo[4,5-c]pyridin-5-yl)methanone], the Ki in data set [1] (setting [5]) was 1240 ± 113 nM.

Consider `COc1cc(Cl)cc(C(=O)N2CCc3[nH]cnc3C2)c1` [8t, (3-Chloro-5-methoxyphenyl)(1,4,6,7-tetrahydro-5H-imidazo[4,5-c]pyridin-5-yl)methanone], for which the Ki at PiQC turned out to be 96 ± 12 nM; on TfQC, 221 ± 19 nM; in data set [1] (setting [5]) it was 87 ± 6 nM; in data set [4] (setting [6]) it was 385 ± 96 nM. Besides, the viability at 30 µM in data set [2] is 128%; in data set [3] it was 96%.

Consider `O=C(c1ccc(-c2ccccc2)cc1)N1CCc2[nH]cnc2C1` [8u, [1,1′-Biphenyl]-4-yl(3,4,6,7-tetrahydroimidazo[4,5-c]pyridin-5-yl)methanone], for which the Ki in data set [1] (setting [5]) worked out at 1900 ± 71 nM.

Consider `O=C(c1cccc(-c2ccccc2)c1)N1CCc2[nH]cnc2C1` [8v, [1,1′-Biphenyl]-3-yl-(3,4,6,7-tetrahydroimidazo[4,5-c]pyridin-5-yl)methanone], for which the Ki in data set [1] (setting [5]) is 547 ± 41 nM.

For the compound `O=C(c1ccc2ccccc2c1)N1CCc2nc[nH]c2C1` [8w, Naphthalen-2-yl-(3,4,6,7-tetrahydroimidazo[4,5-c]pyridin-5-yl)methanone], the Ki at PiQC turned out to be 117 ± 2 nM; at TfQC, 185 ± 10 nM; in data set [1], 126 ± 9 nM; in data set [4] (setting [6]) it was 132 ± 11 nM. Further, the figures for the viability at 30 µM in data set [2] and in data set [3] were 127% and 94%, respectively.

On to `COc1ccc(NC(=S)NCCCn2ccnc2)cc1OC` [PQ50, reference compound], for which the inhibitory constant (Ki) in data set [1] (setting [5]) was 6000 ± 150 nM.

As for `c1ccc2[nH]cnc2c1` [compound 1, benzimidazole, reference compound], the Ki in data set [1] (setting [5]) was found to be 32000 ± 1400 nM.

`c1c[nH]cn1` [compound 2, imidazole, reference compound]: in data set [1] (setting [5]), the Ki is 350000 ± 23000 nM.

On to `c1ccc(Cn2ccnc2)cc1` [compound 3, N-benzylimidazole, reference compound], for which the Ki in data set [1] (setting [5]) stood at 10000 ± 200 nM; in data set [4], 17000 ± 3000 nM.
